# Source: PubChem BioAssay AID1963852 (Molecular Pharmacology Branch, DTP, NCI, 2024)
# System: 282377-053-R-J1-PDC complex spheroid viability
# Assay: Anticancer human tumor 282377-053-R-J1-PDC patient-derived colon adenocarcinoma cell line growth inhibition [POLQ]
# Details: for IC50: curve of first compound; for viability, T/C: stronger effect = lower value
# How it was run: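 PDC + HUVEC + MSC complex spheroids; POLQ inhibitors ± partner drugs; top conc. at/near clinical Cmax, else 10 microM (SN-38 1 microM), half-log dilutions; 37 degrees C, 5% CO2.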
# [1] = second compound 0.0316 µM, first compound 0.00316 µM
# [2] = second compound 0.0316 µM, first compound 0.01 µM
# [3] = second compound 0.0316 µM, first compound 0.0316 µM
# [4] = second compound 0.0316 µM, first compound 0.1 µM
# [5] = second compound 0.0316 µM, first compound 0.316 µM
# [6] = second compound 0.0316 µM, first compound 1 µM
# [7] = second compound 0.1 µM, first compound 0.00316 µM
# [8] = second compound 0.1 µM, first compound 0.01 µM
# [9] = second compound 0.1 µM, first compound 0.0316 µM
# [10] = second compound 0.1 µM, first compound 0.1 µM
# [11] = second compound 0.1 µM, first compound 0.316 µM
# [12] = second compound 0.1 µM, first compound 1 µM
# [13] = second compound 0.316 µM, first compound 0.00316 µM
# [14] = second compound 0.316 µM, first compound 0.01 µM
# [15] = second compound 0.316 µM, first compound 0.0316 µM
# [16] = second compound 0.316 µM, first compound 0.1 µM
# [17] = second compound 0.316 µM, first compound 0.316 µM
# [18] = second compound 0.316 µM, first compound 1 µM
# [19] = second compound 1 µM, first compound 0.00316 µM
# [20] = second compound 1 µM, first compound 0.01 µM
# [21] = second compound 1 µM, first compound 0.0316 µM
# [22] = second compound 1 µM, first compound 0.1 µM
# [23] = second compound 1 µM, first compound 0.316 µM
# [24] = second compound 1 µM, first compound 1 µM
# [25] = second compound 3.16 µM, first compound 0.00316 µM
# [26] = second compound 3.16 µM, first compound 0.01 µM
# [27] = second compound 3.16 µM, first compound 0.0316 µM
# [28] = second compound 3.16 µM, first compound 0.1 µM
# [29] = second compound 3.16 µM, first compound 0.316 µM
# [30] = second compound 3.16 µM, first compound 1 µM
# [31] = second compound 10 µM, first compound 0.00316 µM
# [32] = second compound 10 µM, first compound 0.01 µM
# [33] = second compound 10 µM, first compound 0.0316 µM
# [34] = second compound 10 µM, first compound 0.1 µM
# [35] = second compound 10 µM, first compound 0.316 µM
# [36] = second compound 10 µM, first compound 1 µM
# 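Also: spheroids exposed to compounds for seven days.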
# 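For viability, T/C in this document: 100% = DMSO vehicle control viability.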
smiles,measurement,setting,value
COc1cccc(OCCCN)c1-c1cc(Nc2cnc(C#N)cn2)n[nH]1 + Nc1ccc(C#CCN(C(=O)Cc2ncc(C(F)(F)F)cc2C(F)(F)F)c2ccc(F)cc2)nn1,IC50,second compound 0.0316 µM,370 nM
same,IC50,second compound 0.1 µM,285 nM
same,IC50,second compound 0.316 µM,298 nM
same,IC50,second compound 1 µM,577 nM
same,IC50,second compound 3.16 µM,242 nM
same,IC50,second compound 10 µM,212 nM
same,"viability, T/C",[1],128%
same,"viability, T/C",[2],93.5%
same,"viability, T/C",[3],85%
same,"viability, T/C",[4],66.8%
same,"viability, T/C",[5],55.3%
same,"viability, T/C",[6],37%
same,"viability, T/C",[7],89.7%
same,"viability, T/C",[8],97.3%
same,"viability, T/C",[9],72.9%
same,"viability, T/C",[10],62.4%
same,"viability, T/C",[11],51.8%
same,"viability, T/C",[12],39%
same,"viability, T/C",[13],94.9%
same,"viability, T/C",[14],88.3%
same,"viability, T/C",[15],73.4%
same,"viability, T/C",[16],58.1%
same,"viability, T/C",[17],53.2%
same,"viability, T/C",[18],38%
same,"viability, T/C",[19],110%
same,"viability, T/C",[20],90.3%
same,"viability, T/C",[21],76.4%
same,"viability, T/C",[22],58.4%
same,"viability, T/C",[23],53.7%
same,"viability, T/C",[24],47.5%
same,"viability, T/C",[25],97.6%
same,"viability, T/C",[26],93.5%
same,"viability, T/C",[27],81.3%
same,"viability, T/C",[28],74.9%
same,"viability, T/C",[29],39.7%
same,"viability, T/C",[30],35.6%
same,"viability, T/C",[31],103%
same,"viability, T/C",[32],96.7%
same,"viability, T/C",[33],99.9%
same,"viability, T/C",[34],66.7%
same,"viability, T/C",[35],43.3%
same,"viability, T/C",[36],36.3%
Cn1ncnc1[C@H]1c2n[nH]c(=O)c3cc(F)cc(c23)N[C@@H]1c1ccc(F)cc1 + Nc1ccc(C#CCN(C(=O)Cc2ncc(C(F)(F)F)cc2C(F)(F)F)c2ccc(F)cc2)nn1,IC50,second compound 0.0316 µM,> 100 nM
same,IC50,second compound 0.1 µM,> 100 nM
same,IC50,second compound 0.316 µM,> 100 nM
same,IC50,second compound 1 µM,> 100 nM
same,IC50,second compound 3.16 µM,> 100 nM
same,IC50,second compound 10 µM,> 100 nM
same,"viability, T/C","second compound 0.0316 µM, first compound 0.000316 µM",98.9%
same,"viability, T/C","second compound 0.0316 µM, first compound 0.001 µM",94.9%
same,"viability, T/C",[1],91.9%
same,"viability, T/C",[2],101%
same,"viability, T/C",[3],108%
same,"viability, T/C",[4],94.3%
same,"viability, T/C","second compound 0.1 µM, first compound 0.000316 µM",105%
same,"viability, T/C","second compound 0.1 µM, first compound 0.001 µM",108%
same,"viability, T/C",[7],84.1%
same,"viability, T/C",[8],97.3%
same,"viability, T/C",[9],100%
same,"viability, T/C",[10],81.9%
same,"viability, T/C","second compound 0.316 µM, first compound 0.000316 µM",99%
same,"viability, T/C","second compound 0.316 µM, first compound 0.001 µM",93.7%
same,"viability, T/C",[13],108%
same,"viability, T/C",[14],93.8%
same,"viability, T/C",[15],97.7%
same,"viability, T/C",[16],95.2%
same,"viability, T/C","second compound 1 µM, first compound 0.000316 µM",102%
same,"viability, T/C","second compound 1 µM, first compound 0.001 µM",96.8%
same,"viability, T/C",[19],94.5%
same,"viability, T/C",[20],86.9%
same,"viability, T/C",[21],103%
same,"viability, T/C",[22],104%
same,"viability, T/C","second compound 3.16 µM, first compound 0.000316 µM",105%
same,"viability, T/C","second compound 3.16 µM, first compound 0.001 µM",100%
same,"viability, T/C",[25],100%
same,"viability, T/C",[26],110%
same,"viability, T/C",[27],113%
same,"viability, T/C",[28],93.9%
same,"viability, T/C","second compound 10 µM, first compound 0.000316 µM",122%
same,"viability, T/C","second compound 10 µM, first compound 0.001 µM",119%
same,"viability, T/C",[31],121%
same,"viability, T/C",[32],119%
same,"viability, T/C",[33],111%
same,"viability, T/C",[34],127%
O=C(c1cc(Cc2n[nH]c(=O)c3ccccc23)ccc1F)N1CCN(C(=O)C2CC2)CC1 + Nc1ccc(C#CCN(C(=O)Cc2ncc(C(F)(F)F)cc2C(F)(F)F)c2ccc(F)cc2)nn1,IC50,second compound 0.0316 µM,> 10000 nM
same,IC50,second compound 0.1 µM,> 10000 nM
same,IC50,second compound 0.316 µM,> 10000 nM
same,IC50,second compound 1 µM,> 10000 nM
same,IC50,second compound 3.16 µM,> 10000 nM
same,IC50,second compound 10 µM,> 10000 nM
same,"viability, T/C",[3],114%
same,"viability, T/C",[4],104%
same,"viability, T/C",[5],101%
same,"viability, T/C",[6],105%
same,"viability, T/C","second compound 0.0316 µM, first compound 3.16 µM",121%
same,"viability, T/C","second compound 0.0316 µM, first compound 10 µM",105%
same,"viability, T/C",[9],112%
same,"viability, T/C",[10],123%
same,"viability, T/C",[11],98.6%
same,"viability, T/C",[12],102%
same,"viability, T/C","second compound 0.1 µM, first compound 3.16 µM",117%
same,"viability, T/C","second compound 0.1 µM, first compound 10 µM",118%
same,"viability, T/C",[15],113%
same,"viability, T/C",[16],97.1%
same,"viability, T/C",[17],104%
same,"viability, T/C",[18],95.2%
same,"viability, T/C","second compound 0.316 µM, first compound 3.16 µM",109%
same,"viability, T/C","second compound 0.316 µM, first compound 10 µM",94.8%
same,"viability, T/C",[21],119%
same,"viability, T/C",[22],103%
same,"viability, T/C",[23],105%
same,"viability, T/C",[24],110%
same,"viability, T/C","second compound 1 µM, first compound 3.16 µM",112%
same,"viability, T/C","second compound 1 µM, first compound 10 µM",109%
same,"viability, T/C",[27],111%
same,"viability, T/C",[28],109%
same,"viability, T/C",[29],111%
same,"viability, T/C",[30],106%
same,"viability, T/C","second compound 3.16 µM, first compound 3.16 µM",118%
same,"viability, T/C","second compound 3.16 µM, first compound 10 µM",115%
same,"viability, T/C",[33],122%
same,"viability, T/C",[34],106%
same,"viability, T/C",[35],130%
same,"viability, T/C",[36],121%
same,"viability, T/C","second compound 10 µM, first compound 3.16 µM",129%
same,"viability, T/C","second compound 10 µM, first compound 10 µM",127%
